The assay relates to Human foreskin microvascular endothelial cells (MVEC). The assay is described as follows: Angiogenesis assay: capillary-like tube formation of MVEC in fibrin matrix. To be noted: for formation of capillary-like structures in fibrin matrices: uninfected MVEC, in combination with TNF-α. Type of assay: cell-based. As for the experimental part:
Human foreskin microvascular endothelial cells (MVEC) were grown to confluency in M199 medium supplemented with 10% human serum (HS), 10% new-born calf serum (NBCS), penicillin and streptomycin and infected with 3.10_ pfu/ml Ad.IG.CMV.eNOS for 1 hour in M199 +2% NBCS. Medium was refreshed and cells were incubated overnight in M199+10% HS+10% NBCS.
Angiogenesis was analysed as described in Koolwijk et al. J. Cell Biol. 132 p1177-1188 (1996). Briefly, highly confluent MVEC were detached, seeded in a 1.25:1 split ratio on human fibrin matrices as cultures consisting either of uninfected cells, 100% infected cells or mixed cultures consisting of 10% infected/90% uninfected cells and cultured in M199 medium supplemented with 10% human serum (HS), 10% new-born calf serum (NBCS), penicillin and streptomycin.
Invading cells and the formation of tubular structures of endothelial cells in the three-dimensional fibrin matrix were analysed by phase contrast microscopy. After 7 days the total length of the tube-like structure of six randomly chosen microscopic fields per well (7.3 mm^2/field=43.8% of the total well) was measured using a Nikon FXA microscope equipped with a monochrome CCD camera (MX5) connected to a computer with Optimas image analysis software, and expressed as total tube length/cm^2.
For the angiogenesis experiments incubations are performed with cultures of uninfected cells, 10% infected MVEC and of 100% infected MVEC.
All incubations have been performed in the presence of 1 ng/ml TNF-α. Specific conditions tested in the presence and absence of virus were control, +bFGF: 5 ng/ml, +VEGF: 25 ng/ml, +bFGF+L-NAME: 5 ng/ml, 100 iM

As for `COC(=O)[C@@H](N)CCCNC(=N)N[N+](=O)[O-]` [L-NAME], the “effect on tube formation” value (100 μM, bFGF+TNF-α stimulated cultures, with and without NOS infected cells) is recorded as “small reduction of tube formation”.
Regarding VEGF, the “formation of capillary-like structures in fibrin matrices” value is on record as “formed capillary-like structures”.
For bFGF: basic Fibroblast Growth Factor, the “formation of capillary-like structures in fibrin matrices” value is “formed capillary-like structures”.

The values above are taken from patent US6447768B1, “Methods of gene therapy with a DNA sequence encoding NOS” (priority 1998, dated 2002).
